Activity calls are given as the source filed them.
Key:
[1] = test system: A549; experiment: Antiproliferative activity against human A549 cells at 2 uM after 96 hrs by MTT assay in presence of zinc ion; type: functional, cell-based
[2] = test system: MCF7; experiment: Antiproliferative activity against human MCF7 cells at 2 uM after 96 hrs by MTT assay in presence of manganese ion; type: functional, cell-based
[3] = Metal chelating activity of the compound assessed as ferric ion complex formation in doble-distiled water by UV-vis spectrometry; type: functional
[4] = test system: PANC-1; experiment: Antiproliferative activity against human PANC1 cells at 2 uM after 96 hrs by MTT assay in presence of zinc ion; type: functional, cell-based
[5] = test system: A549; experiment: Antiproliferative activity against human A549 cells at 2 uM after 96 hrs by MTT assay in presence of cobalt ion; type: functional, cell-based
[6] = test system: Jurkat; experiment: Antiproliferative activity against human Jurkat cells at 2 uM after 96 hrs by MTT assay in presence of zinc ion; type: functional, cell-based
[7] = test system: HT-1080; experiment: Antiproliferative activity against human HT1080 cells at 2 uM after 96 hrs by MTT assay in presence of ferric ion; type: functional, cell-based
[8] = test system: A-375; experiment: Antiproliferative activity against human A375 cells at 2 uM after 96 hrs by MTT assay in presence of manganese ion; type: functional, cell-based
[9] = test system: HepG2; experiment: Antiproliferative activity against human HepG2 cells at 2 uM after 96 hrs by MTT assay in presence of zinc ion; type: functional, cell-based
[10] = test system: HT-1080; experiment: Antiproliferative activity against human HT1080 cells at 2 uM after 96 hrs by MTT assay in presence of zinc ion; type: functional, cell-based
[11] = test system: MCF7; experiment: Antiproliferative activity against human MCF7 cells after 96 hrs by MTT assay; type: functional, cell-based; settings: MCF7, 96 h
[12] = test system: NCI-N87; experiment: Antiproliferative activity against human NCI-N87 cells at 2 uM after 96 hrs by MTT assay in presence of ferrous ion; type: functional, cell-based
[13] = test system: A-375; experiment: Antiproliferative activity against human A375 cells after 96 hrs by MTT assay; type: functional, cell-based; settings: A-375, 96 h
[14] = test system: PANC-1; experiment: Antiproliferative activity against human PANC1 cells after 96 hrs by MTT assay; type: functional, cell-based; settings: PANC-1, 96 h
[15] = test system: Bel-7402; experiment: Antiproliferative activity against human Bel7402 cells at 2 uM after 96 hrs by MTT assay in presence of ferric ion; type: functional, cell-based
[16] = test system: HepG2; experiment: Antiproliferative activity against human HepG2 cells at 2 uM after 96 hrs by MTT assay in presence of 1 uM of ferrous ion; type: functional, cell-based
[17] = test system: NCI-N87; experiment: Antiproliferative activity against human NCI-N87 cells at 2 uM after 96 hrs by MTT assay in presence of zinc ion; type: functional, cell-based
[18] = test system: PANC-1; experiment: Antiproliferative activity against human PANC1 cells at 2 uM after 96 hrs by MTT assay in presence of cobalt ion; type: functional, cell-based
[19] = Metal chelating activity of the compound assessed as manganese complex formation in doble-distiled water by UV-vis spectrometry; type: functional
[20] = Metal chelating activity of the compound assessed as zinc complex formation in doble-distiled water by UV-vis spectrometry; type: functional
[21] = test system: HT-1080; experiment: Antiproliferative activity against human HT1080 cells at 2 uM after 96 hrs by MTT assay in presence of 1 uM of ferrous ion; type: functional, cell-based
[22] = test system: A-375; experiment: Antiproliferative activity against human A375 cells at 2 uM after 96 hrs by MTT assay in presence of 1 uM of ferrous ion; type: functional, cell-based
[23] = test system: Bel-7402; experiment: Antiproliferative activity against human Bel7402 cells at 2 uM after 96 hrs by MTT assay in presence of cobalt ion; type: functional, cell-based
[24] = test system: MCF7; experiment: Antiproliferative activity against human MCF7 cells at 2 uM after 96 hrs by MTT assay in presence of 1 uM of ferrous ion; type: functional, cell-based
[25] = Metal chelating activity of the compound assessed as ferrous ion complex formation in doble-distiled water by UV-vis spectrometry; type: functional
[26] = test system: NCI-N87; experiment: Antiproliferative activity against human NCI-N87 cells at 2 uM after 96 hrs by MTT assay in presence of 1 uM of ferrous ion; type: functional, cell-based
[27] = test system: HeLa; experiment: Antiproliferative activity against human HeLa cells at 2 uM after 96 hrs by MTT assay in presence of manganese ion; type: functional, cell-based

Cc1cc2c(cc(O)c1=O)[C@@]13CCCC(C)(C)[C@@H]1C[C@@H]2OC3 [MILTIPOLONE]
active: Activity [1] | Activity [2] | Activity [3] | Activity [4] | Activity [5] | Activity [6] | Activity [7] | Activity [8] | Activity [9] | Activity [10] | Activity [15] | Activity [17] | Activity [18] | Activity [19] | Activity [20] | Activity [23] | Activity [25] | Activity [27]
3.5 µM: IC50 [13]
5.95 µM: IC50 [14]
inactive: Activity [12] | Activity [16] | Activity [21] | Activity [22] | Activity [24] | Activity [26]
2 µM: IC50 [11]

From ChEMBL document CHEMBL1759870, “Identification, structural properties and chelating capacity of miltipolone as a broad-spectrum inhibitor to cancer cells” (Eur J Med Chem, 2011)
